Test system: NCI-H1876 complex spheroid viability
Test: Anticancer human tumor NCI-H1876 cell line growth inhibition [LSD1];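 also: spheroids exposed to compounds for one week before readout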;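 as to viability, T/C: 100% = DMSO vehicle-treated spheroids so lower means fewer viable cells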
Settings: for IC50: curve of first compound; for viability, T/C: stronger effect = lower value
How it was run: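 Drug combinations with the LSD1 inhibitor iadademstat tested on tumor cells co-cultured as spheroids with endothelial cells and mesenchymal stem cells. Concentrations descended in half-log increments from clinical Cmax or 10 microM.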

[1] = second compound 0.1 µM, first compound 0.000949 µM
[2] = second compound 0.1 µM, first compound 0.003 µM
[3] = second compound 0.1 µM, first compound 0.00949 µM
[4] = second compound 0.1 µM, first compound 0.03 µM
[5] = second compound 0.1 µM, first compound 0.0949 µM
[6] = second compound 0.1 µM, first compound 0.3 µM
[7] = second compound 0.316 µM, first compound 0.000949 µM
[8] = second compound 0.316 µM, first compound 0.003 µM
[9] = second compound 0.316 µM, first compound 0.00949 µM
[10] = second compound 0.316 µM, first compound 0.03 µM
[11] = second compound 0.316 µM, first compound 0.0949 µM
[12] = second compound 0.316 µM, first compound 0.3 µM
[13] = second compound 1 µM, first compound 0.000949 µM
[14] = second compound 1 µM, first compound 0.003 µM
[15] = second compound 1 µM, first compound 0.00949 µM
[16] = second compound 1 µM, first compound 0.03 µM
[17] = second compound 1 µM, first compound 0.0949 µM
[18] = second compound 1 µM, first compound 0.3 µM
[19] = second compound 3.16 µM, first compound 0.000949 µM
[20] = second compound 3.16 µM, first compound 0.003 µM
[21] = second compound 3.16 µM, first compound 0.00949 µM
[22] = second compound 3.16 µM, first compound 0.03 µM
[23] = second compound 3.16 µM, first compound 0.0949 µM
[24] = second compound 3.16 µM, first compound 0.3 µM
[25] = second compound 10 µM, first compound 0.000949 µM
[26] = second compound 10 µM, first compound 0.003 µM
[27] = second compound 10 µM, first compound 0.00949 µM
[28] = second compound 10 µM, first compound 0.03 µM
[29] = second compound 10 µM, first compound 0.0949 µM
[30] = second compound 10 µM, first compound 0.3 µM

## CCc1c2c(nc3ccc(O)cc13)-c1cc3c(c(=O)n1C2)COC(=O)[C@]3(O)CC + NC1CC1c1ccc(-c2cccc(O)c2)cc1
Second compound 0.1 µM
  IC50: < 0.949 nM
Second compound 0.316 µM
  IC50: < 0.949 nM
Second compound 1 µM
  IC50: < 0.949 nM
Second compound 3.16 µM
  IC50: < 0.949 nM
Second compound 10 µM
  IC50: < 0.949 nM
[1]
  viability, T/C: 5.07%
[2]
  viability, T/C: 3.61%
[3]
  viability, T/C: 1.59%
[4]
  viability, T/C: 0.3%
[5]
  viability, T/C: 0.22%
[6]
  viability, T/C: 0.31%
[7]
  viability, T/C: 5.4%
[8]
  viability, T/C: 3.71%
[9]
  viability, T/C: 1.52%
[10]
  viability, T/C: 0.19%
[11]
  viability, T/C: 0.15%
[12]
  viability, T/C: 0.25%
[13]
  viability, T/C: 5.18%
[14]
  viability, T/C: 3.15%
[15]
  viability, T/C: 1.5%
[16]
  viability, T/C: 0.39%
[17]
  viability, T/C: 0.6%
[18]
  viability, T/C: 0.3%
[19]
  viability, T/C: 5.73%
[20]
  viability, T/C: 3.61%
[21]
  viability, T/C: 1.99%
[22]
  viability, T/C: 0.43%
[23]
  viability, T/C: 0.32%
[24]
  viability, T/C: 0.32%
[25]
  viability, T/C: 6.65%
[26]
  viability, T/C: 4.79%
[27]
  viability, T/C: 3.56%
[28]
  viability, T/C: 0.81%
[29]
  viability, T/C: 0.56%
[30]
  viability, T/C: 0.86%

## Nc1ccccc1NC(=O)c1ccc(CNC(=O)OCc2cccnc2)cc1 + NC1CC1c1ccc(-c2cccc(O)c2)cc1
Second compound 0.1 µM
  IC50: 81 nM
Second compound 0.316 µM
  IC50: 66.8 nM
Second compound 1 µM
  IC50: 61.5 nM
Second compound 3.16 µM
  IC50: 65.2 nM
Second compound 10 µM
  IC50: 68.2 nM
[3]
  viability, T/C: 91.1%
[4]
  viability, T/C: 88.8%
[5]
  viability, T/C: 43.1%
[6]
  viability, T/C: 9.94%
Second compound 0.1 µM, first compound 0.949 µM
  viability, T/C: 2.94%
Second compound 0.1 µM, first compound 3 µM
  viability, T/C: 0.49%
[9]
  viability, T/C: 83.6%
[10]
  viability, T/C: 71.9%
[11]
  viability, T/C: 40.9%
[12]
  viability, T/C: 9.16%
Second compound 0.316 µM, first compound 0.949 µM
  viability, T/C: 3.03%
Second compound 0.316 µM, first compound 3 µM
  viability, T/C: 0.41%
[15]
  viability, T/C: 85.1%
[16]
  viability, T/C: 75.5%
[17]
  viability, T/C: 34.4%
[18]
  viability, T/C: 8.61%
Second compound 1 µM, first compound 0.949 µM
  viability, T/C: 2.73%
Second compound 1 µM, first compound 3 µM
  viability, T/C: 0.38%
[21]
  viability, T/C: 84.6%
[22]
  viability, T/C: 76%
[23]
  viability, T/C: 37.3%
[24]
  viability, T/C: 8.61%
Second compound 3.16 µM, first compound 0.949 µM
  viability, T/C: 2.69%
Second compound 3.16 µM, first compound 3 µM
  viability, T/C: 0.45%
[27]
  viability, T/C: 78.6%
[28]
  viability, T/C: 70.5%
[29]
  viability, T/C: 41.5%
[30]
  viability, T/C: 13.3%
Second compound 10 µM, first compound 0.949 µM
  viability, T/C: 2.64%
Second compound 10 µM, first compound 3 µM
  viability, T/C: 0.52%

## Nc1ccn(C2OC(CO)C(O)C2(F)F)c(=O)n1 (stereo not given) + NC1CC1c1ccc(-c2cccc(O)c2)cc1
Second compound 0.1 µM
  IC50: 6.24 nM
Second compound 0.316 µM
  IC50: 6.23 nM
Second compound 1 µM
  IC50: 6.24 nM
Second compound 3.16 µM
  IC50: 6.33 nM
Second compound 10 µM
  IC50: 6.89 nM
[1]
  viability, T/C: 104%
[2]
  viability, T/C: 93.9%
[3]
  viability, T/C: 24.8%
[4]
  viability, T/C: 9.9%
[5]
  viability, T/C: 8.25%
[6]
  viability, T/C: 7.07%
[7]
  viability, T/C: 103%
[8]
  viability, T/C: 91.5%
[9]
  viability, T/C: 26%
[10]
  viability, T/C: 10.9%
[11]
  viability, T/C: 7.72%
[12]
  viability, T/C: 7.02%
[13]
  viability, T/C: 108%
[14]
  viability, T/C: 87.2%
[15]
  viability, T/C: 28.7%
[16]
  viability, T/C: 9.78%
[17]
  viability, T/C: 8.57%
[18]
  viability, T/C: 7.79%
[19]
  viability, T/C: 104%
[20]
  viability, T/C: 87%
[21]
  viability, T/C: 29.9%
[22]
  viability, T/C: 10.1%
[23]
  viability, T/C: 8.03%
[24]
  viability, T/C: 7.36%
[25]
  viability, T/C: 101%
[26]
  viability, T/C: 91.4%
[27]
  viability, T/C: 34%
[28]
  viability, T/C: 13.2%
[29]
  viability, T/C: 10.4%
[30]
  viability, T/C: 11.8%

## O=C(c1cc(Cc2n[nH]c(=O)c3ccccc23)ccc1F)N1CCN(C(=O)C2CC2)CC1 + NC1CC1c1ccc(-c2cccc(O)c2)cc1
Second compound 0.1 µM
  IC50: 6190 nM
Second compound 0.316 µM
  IC50: 6210 nM
Second compound 1 µM
  IC50: 6350 nM
Second compound 3.16 µM
  IC50: 6410 nM
Second compound 10 µM
  IC50: 6490 nM
Second compound 0.1 µM, first compound 0.0316 µM
  viability, T/C: 101%
Second compound 0.1 µM, first compound 0.1 µM
  viability, T/C: 99.9%
Second compound 0.1 µM, first compound 0.316 µM
  viability, T/C: 98.2%
Second compound 0.1 µM, first compound 1 µM
  viability, T/C: 90.3%
Second compound 0.1 µM, first compound 3.16 µM
  viability, T/C: 68.3%
Second compound 0.1 µM, first compound 10 µM
  viability, T/C: 36.9%
Second compound 0.316 µM, first compound 0.0316 µM
  viability, T/C: 103%
Second compound 0.316 µM, first compound 0.1 µM
  viability, T/C: 94.9%
Second compound 0.316 µM, first compound 0.316 µM
  viability, T/C: 97.7%
Second compound 0.316 µM, first compound 1 µM
  viability, T/C: 88.3%
Second compound 0.316 µM, first compound 3.16 µM
  viability, T/C: 66.8%
Second compound 0.316 µM, first compound 10 µM
  viability, T/C: 38%
Second compound 1 µM, first compound 0.0316 µM
  viability, T/C: 106%
Second compound 1 µM, first compound 0.1 µM
  viability, T/C: 99.5%
Second compound 1 µM, first compound 0.316 µM
  viability, T/C: 98.3%
Second compound 1 µM, first compound 1 µM
  viability, T/C: 88.2%
Second compound 1 µM, first compound 3.16 µM
  viability, T/C: 70.2%
Second compound 1 µM, first compound 10 µM
  viability, T/C: 36.7%
Second compound 3.16 µM, first compound 0.0316 µM
  viability, T/C: 102%
Second compound 3.16 µM, first compound 0.1 µM
  viability, T/C: 96.9%
Second compound 3.16 µM, first compound 0.316 µM
  viability, T/C: 101%
Second compound 3.16 µM, first compound 1 µM
  viability, T/C: 88.4%
Second compound 3.16 µM, first compound 3.16 µM
  viability, T/C: 72%
Second compound 3.16 µM, first compound 10 µM
  viability, T/C: 36.3%
Second compound 10 µM, first compound 0.0316 µM
  viability, T/C: 99.5%
Second compound 10 µM, first compound 0.1 µM
  viability, T/C: 94.1%
Second compound 10 µM, first compound 0.316 µM
  viability, T/C: 93.2%
Second compound 10 µM, first compound 1 µM
  viability, T/C: 82%
Second compound 10 µM, first compound 3.16 µM
  viability, T/C: 69.7%
Second compound 10 µM, first compound 10 µM
  viability, T/C: 38.6%
